Laboratory results taken from patent US11090285B2, “Treatment of circadian rhythm disorders” (Vanda Pharmaceuticals Inc., priority 2013, dated 2021).
Where two headings read alike, the source gives them in different places.

Columns and labels:
[1] = Pharmacokinetics on co-administration of tasimelteon and fluvoxamine; type: in vivo, human; details: for AUC (inf), Geometric Mean Ratio / Cmax, Geometric Mean Ratio / t½, Geometric Mean Ratio: Day 8 vs Day 1; for half-life: read-out: t½ (converted)
Description: Twenty-four healthy male or female subjects between the ages of 18 and 55 years of age (inclusive) who were non-smokers with a body mass index (BMI) of ≥18 and ≤35 kg/m2 participated in this open-label, single-sequence study conducted at one site. On day 1, subjects were administered […] of tasimelteon.

[2] = Effect of smoking on pharmacokinetics of tasimelteon and metabolites; type: in vivo, human; design: AUC (inf) / AUC(0-inf): concentration or dose not given beside the values; details: for AUC (inf), Geometric Mean Ratio / Cmax, Geometric Mean Ratio / t½, Geometric Mean Ratio: Smokers vs Non-Smokers; for half-life: read-out: t½ (converted)
Excerpt: Smokers were defined as those smoking 10 or more cigarettes per day. Non-smokers were defined as those smoking no cigarettes per day.

[3] = in vivo; cited from earlier work
[4] = Day 1, 5.667 mg tasimelteon alone
[5] = Day 8, 5.667 mg tasimelteon + 50 mg fluvoxamine
[6] = Smokers (10 or more cigarettes per day)
[7] = both sexes, human, in vivo, Day 1, 5.667 mg tasimelteon alone, read-out: Cmax
[8] = both sexes, human, in vivo, Day 1, 5.667 mg tasimelteon alone, read-out: Tmax
[9] = both sexes, human, in vivo, Day 1, 5.667 mg tasimelteon alone
[10] = human, in vivo, Non-Smokers, read-out: Cmax
[11] = human, in vivo, Smokers (10 or more cigarettes per day), read-out: Cmax
[12] = human, in vivo, Smokers, read-out: Tmax

AUC (inf) [1, 4] [ng·h/mL] | Cmax [1, 4] [ng/mL] | Tmax [1, 4] [h] | t½ [1, 4] [h] | AUC (inf) [1, 5] [ng·h/mL] | Cmax [1, 5] [ng/mL] | Tmax [1, 5] [h] | t½ [1, 5] [h] | AUC (inf), Geometric Mean Ratio [1] [%] | Cmax, Geometric Mean Ratio [1] [%] | t½, Geometric Mean Ratio [1] [%] | AUC (inf) ([2]; Non-Smokers) [ng·h/mL] | Cmax ([2]; Non-Smokers) [ng/mL] | Tmax ([2]; Non-Smokers) [h] | t½ ([2]; Non-Smokers) [h] | AUC (inf) ([2]; Smokers) [ng·h/mL] | Tmax ([2]; Smokers) [h] | AUC (inf), Geometric Mean Ratio [2] [%] | Cmax, Geometric Mean Ratio [2] [%] | t½, Geometric Mean Ratio [2] [%] | Compound | further results
4.54 ± 2.39 | 1.20 ± 0.40 | 0.75 | 2.18 ± 0.97 | 42.6 ± 27.3 | 3.20 ± 1.49 | 4.00 | 4.98 ± 1.89 | 944.73 | 264.58 | 243.34 | 22.0 ± 24.2 | 6.18 ± 3.15 | 0.75 | 1.84 ± 1.22 | 9.45 ± 11.88 | 0.75 | 42.98 | 60.17 | 65.09 | CCC(=O)NCC1CC1c1cccc2c1C(O)CO2 (stereo not drawn) [M14] | t½ ([2]; Smokers): 1.13 ± 0.54 h; Cmax [2, 6]: 3.72 ± 1.86 ng/mL
 |  |  |  |  |  |  |  | 126.03 | 68.71 | 248.35 |  |  |  |  |  |  | 81.84 | 84.50 | 94.13 | CCC(=O)NC[C@@H]1C[C@H]1c1cccc(O)c1CCO [M11] | Cmax [1, 7]: 15.8 ± 5.4 ng/mL; Tmax [1, 8]: 1 h; half-life [1, 9]: 1.61 ± 0.55 h; AUC(0-inf) ([2]; human, in vivo, Non-Smokers): 154 ± 58 ng·h/mL; Cmax [2, 10]: 54.9 ± 15.1 ng/mL; half-life ([2]; human, in vivo, Non-Smokers): 2.14 ± 0.94 h; AUC(0-inf) ([2]; human, in vivo, Smokers): 124 ± 42 ng·h/mL; Cmax [2, 11]: 46.2 ± 11.9 ng/mL; Tmax [2, 12]: 1 h; half-life ([2]; human, in vivo, Smokers): 1.99 ± 0.85 h
106 ± 32.6 | 87.5 ± 24.4 | 0.50 | 1.00 ± 0.30 | 133 ± 32.9 | 63.6 ± 24.6 | 0.50 | 3.51 ± 1.18 | 125.05 | 69.31 | 349.81 | 337 ± 94 | 270 ± 71 | 0.50 | 1.18 ± 0.50 | 329 ± 99 | 0.75 | 97.31 | 99.49 | 77.51 | CCC(=O)NC[C@@H]1C[C@H]1c1cccc2c1CC(O)O2 (stereo partly drawn) [M13] | t½ ([2]; Smokers): 0.89 ± 0.26 h; Cmax [2, 6]: 272 ± 86 ng/mL
 |  |  |  |  |  |  |  | 122.56 | 64.94 | 328.02 |  |  |  |  |  |  | 74.36 | 77.18 | 85.40 | CCC(=O)NC[C@@H]1C[C@H]1c1cccc(O)c1CC(=O)O [M9] | Cmax [1, 7]: 67.6 ± 19.1 ng/mL; Tmax [1, 8]: 0.5 h; half-life [1, 9]: 1.14 ± 0.29 h; AUC(0-inf) ([2]; human, in vivo, Non-Smokers): 406 ± 75 ng·h/mL; Cmax [2, 10]: 279 ± 82.8 ng/mL; half-life ([2]; human, in vivo, Non-Smokers): 1.38 ± 0.45 h; AUC(0-inf) ([2]; human, in vivo, Smokers): 315 ± 112 ng·h/mL; Cmax [2, 11]: 230 ± 118 ng/mL; Tmax [2, 12]: 0.75 h; half-life ([2]; human, in vivo, Smokers): 1.15 ± 0.17 h
189 ± 90.8 | 31.0 ± 7.23 | 0.88 | 3.03 ± 1.02 | 435 ± 109.3 | 30.8 ± 17.6 | 3.00 | 7.03 ± 3.27 | 274.81 | 92.74 | 241.02 | 679 ± 433 | 108 ± 29 | 1.00 | 3.05 ± 1.73 | 526 ± 193 | 1.00 | 84.87 | 115.53 | 73.31 | CCC(=O)NCC1CC1c1cccc2c1C(O)CO2 (stereo not drawn) [M12] | t½ ([2]; Smokers): 2.11 ± 0.67 h; Cmax [2, 6]: 123 ± 28 ng/mL
 |  |  |  |  |  |  |  |  |  |  |  |  |  |  |  |  |  |  |  | COc1ccc2[nH]cc(CCNC(C)=O)c2c1 [Melatonin] | Tmax [3]: ≥ 2 h
